pIC50: −log10 of the molar value. A value given as a limit tells only on which side of the number the result lay.

The term pIC50 denotes the negative decadic logarithm of the IC50, by convention in mol/L.

For test [1], the system named is Escherichia coli expressing NDM-1 (CLB30016). Nature of the test: Antibiotic potentiation activity: synergistic concentration (MITC95) with imipenem, growth by OD600. It is filed as cell-based. Particulars: 95% inhibition of bacterial growth, strain CLB30016. The essentials:
(§1)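 Colonies from overnight agar plates (35 °C) were suspended in saline and diluted 1:100 into 1.1× CAMHB. Inhibitor (final 200 μM to 0.195 μM) was combined with imipenem at 1 or 4 μg/ml, incubated 22–24 h at 35 °C, and absorbance read; MITC95 is the lowest inhibitor concentration giving 95% growth inhibition.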

Test [2] deals with Serratia marcescens expressing IMP-1 (CL5741). The test is described as above. The settings on record: 95% inhibition of bacterial growth, strain CL5741. It is filed as cell-based. The essentials:
as §1

The subject of test [3] is Klebsiella pneumoniae expressing VIM-1 (IHMA599644). Described as above. Particulars: 95% inhibition of bacterial growth, strain IHMA599644. It is filed as cell-based. A digest of the protocol:
as §1

The target in test [4] is NDM-1 (Klebsiella pneumoniae, UniProt C7C422). Nature of the test: Enzyme activity: determination of IC50, fluorescence assay with CCF2-FA substrate. The settings on record: enzyme 1 pM, CCF2-FA 1.25 μM, 2 hours at 25° C.; read-out: NDM1 IC50. Type of test: biochemical. A digest of the protocol: (§2)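 Enzyme at 1 pM (NDM-1), 2 pM (IMP-1) or 30 pM (VIM-1) was incubated with inhibitor (20 μM to 0.00063 μM) and 1.25 μM CCF2-FA in 100 mM KH2PO4 pH 7, 0.005% Tween-20, 10 μM ZnSO4 for 2 hours at 25° C. Fluorescence was read at ex 405/em 460 nm; IC50 from 4-parameter fit.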
Sequence of NDM-1 (C7C422 29-270, looked up, species assumed): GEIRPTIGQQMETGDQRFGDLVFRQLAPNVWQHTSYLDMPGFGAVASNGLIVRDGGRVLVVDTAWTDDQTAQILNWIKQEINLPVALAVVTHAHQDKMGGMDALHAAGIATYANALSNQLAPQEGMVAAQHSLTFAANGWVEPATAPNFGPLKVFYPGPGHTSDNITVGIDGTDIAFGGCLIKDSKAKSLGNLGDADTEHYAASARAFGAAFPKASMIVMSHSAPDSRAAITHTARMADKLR

Test [5] concerns the target VIM-1 (Pseudomonas aeruginosa, UniProt A0A0F7KYQ8). Described as above. Type of test: biochemical. Particulars: enzyme 30 pM, CCF2-FA 1.25 μM, 2 hours at 25° C.; read-out: VIM1 IC50. The essentials:
as §2

Test [6] deals with IMP-1 (Serratia marcescens, UniProt P52699). The description is as above. Type of test: biochemical. Particulars: enzyme 2 pM, CCF2-FA 1.25 μM, 2 hours at 25° C.; read-out: IMP1 IC50. The essentials: as §2
Sequence of IMP-1 (P52699 19-246, looked up, species assumed): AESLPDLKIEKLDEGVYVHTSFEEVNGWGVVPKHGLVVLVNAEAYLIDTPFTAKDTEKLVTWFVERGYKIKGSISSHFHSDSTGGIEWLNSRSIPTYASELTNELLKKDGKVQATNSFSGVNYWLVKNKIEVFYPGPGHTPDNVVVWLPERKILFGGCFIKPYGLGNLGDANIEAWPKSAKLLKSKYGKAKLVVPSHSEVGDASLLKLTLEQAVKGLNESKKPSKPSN

As for `CC(C)[C@H](C(=O)O)[C@H](Cc1csc(C2CCNC2)n1)c1nnn[nH]1` (stereo partly drawn) [Example 108, (2S,3S)-2-isopropyl-4-(2-(pyrrolidin-3-yl)thiazol-4-yl)-3-(1H-tetrazol-5-yl)butanoic acid], the “NDM1 EC30016 MITC95” value in test [1] is 12.5 µM. In addition, the “IMP1 SM5741 MITC95” value in test [2] is more than 200 µM. Further, the “VIM1 KP599644 MITC95” value in test [3] was 37 µM. For the same compound, the values for the pIC50 in test [4], in test [5] and in test [6] were 5.55, 6.12 and less than 4.70, respectively.
Consider `CC(C)[C@H](C(=O)O)[C@H](Cc1ccc(C2CCNC2)c(F)c1)c1nnn[nH]1` (stereo partly drawn) [Example 109, (2S,3S)-4-(3-fluoro-4-(pyrrolidin-3-yl)phenyl)-2-isopropyl 3-(1H-tetrazol-5-yl)butanoic acid], for which the “NDM1 EC30016 MITC95” value in test [1] was 3.1 µM. Moreover, in test [2], the “IMP1 SM5741 MITC95” value stood at 12.5 µM. In addition, the “VIM1 KP599644 MITC95” value in test [3] was found to be 4.7 µM. In addition, the negative-log IC50 (pIC50) is 7.77 in test [4], 8.92 in test [5] and 6.35 in test [6].
Turning to `Cc1cc(C[C@H](c2nnn[nH]2)[C@@H](C(=O)O)C(C)C)ccc1C1CCNC1` (stereo partly drawn) [Example 110, (2S,3S)-2-isopropyl-4-(3-methyl-4-(pyrrolidin-3-yl)phenyl)-3-(1H-tetrazol-5-yl)butanoic acid], the “NDM1 EC30016 MITC95” value in test [1] came out at 4.7 µM. The “IMP1 SM5741 MITC95” value in test [2] turned out to be 18.8 µM. For the same compound, the “VIM1 KP599644 MITC95” value in test [3] turned out to be 6.2 µM. Further, the pIC50 in test [4] is 7.62; in test [5], 8.36; in test [6], 5.85.
For the compound `CCC[C@H](C(=O)O)[C@H](Cc1ccc(N)cn1)c1nnn[nH]1` [Example 111, (S)-2-((S)-2-(5-aminopyridin-2-yl)-1-(1H-tetrazol-5-yl)ethyl)pentanoic acid], in test [1], the “NDM1 EC30016 MITC95” value turned out to be 0.49 µM. In addition, in test [2], the “IMP1 SM5741 MITC95” value came to 44 µM. The “VIM1 KP599644 MITC95” value in test [3] was 5.5 µM. Also, the negative logarithm of the IC50 (pIC50) was 6.64 in test [4], 7.11 in test [5] and 5.11 in test [6].
On to `CC(C)C[C@H](C(=O)O)[C@H](Cc1ccc(N)nc1)c1nnn[nH]1` [Example 112, 2-amino-5-((2S,3S)-3-carboxy-5-methyl-2-(2H-tetrazol-5-yl)hexyl)pyridin-1-ium 2,2,2-trifluoroacetate], for which the “NDM1 EC30016 MITC95” value in test [1] stood at 0.54 µM. The “IMP1 SM5741 MITC95” value in test [2] worked out at 11 µM. Moreover, the “VIM1 KP599644 MITC95” value in test [3] is 5.5 µM. The pIC50 was 6.96 in test [4], 8.31 in test [5] and 6.24 in test [6].
Take `CC(C)C[C@H](C(=O)O)[C@H](Cc1ccc(N)cn1)c1nnn[nH]1` [Example 113, 5-amino-2-((2S,3S)-3-carboxy-5-methyl-2-(2H-tetrazol-5-yl)hexyl)pyridin-1-ium 2,2,2-trifluoroacetate]: the “NDM1 EC30016 MITC95” value in test [1] stood at 0.78 µM. Further, the “IMP1 SM5741 MITC95” value in test [2] amounted to 18.8 µM. In test [3], the “VIM1 KP599644 MITC95” value was determined as 9.4 µM. Moreover, the negative-log IC50 (pIC50) is 6.89 in test [4], 7.10 in test [5] and 5.68 in test [6].
In the case of `CCC[C@H](C(=O)O)[C@H](Cc1ccc(N)nc1)c1nnn[nH]1` [Example 114, (S)-2-((S)-2-(6-aminopyridin-3-yl)-1-(1H-tetrazol-5-yl)ethyl)pentanoic acid], the “NDM1 EC30016 MITC95” value in test [1] came out at 0.39 µM. Further, the “IMP1 SM5741 MITC95” value in test [2] came out at 18.8 µM. Moreover, the “VIM1 KP599644 MITC95” value in test [3] was 2.3 µM. The pIC50 in test [4] was 6.74; in test [5], 8.21; in test [6], 5.43.
For `CCC[C@H](C(=O)O)[C@H](Cc1cnc(N)s1)c1nnn[nH]1` [Example 115, (2S)-2-[(1S)-2-(2-amino-1,3-thiazol-5-yl)-1-(1H-tetrazol-5-yl)ethyl]pentanoic acid], in test [1], the “NDM1 EC30016 MITC95” value was found to be 0.78 µM. The “IMP1 SM5741 MITC95” value in test [2] stood at 25 µM. The “VIM1 KP599644 MITC95” value in test [3] was determined as 9.4 µM. The results for the pIC50 in test [4], in test [5] and in test [6] were 6.77, 8.19 and 5.82, respectively.
`CC(C)C[C@H](C(=O)O)[C@H](Cc1cnc(N)s1)c1nnn[nH]1` [Example 116, (2S)2-[(1S)-2-(2-amino-1,3-thiazol-5-yl)-1-(1H-tetrazol-5-yl)ethyl]-4-methylpentanoic acid]: in test [1], the “NDM1 EC30016 MITC95” value was determined as 3.1 µM. The “IMP1 SM5741 MITC95” value in test [2] turned out to be 9.4 µM. Further, in test [3], the “VIM1 KP599644 MITC95” value amounted to 18.8 µM. Moreover, the negative logarithm of the IC50 (pIC50) in test [4] was 6.85; in test [5], 8.36; in test [6] it was 6.54.
Turning to `CCC[C@H](C(=O)O)[C@H](Cc1cccc(N)n1)c1nnn[nH]1` [Example 117, (2S)-2-[(1S)-2-(6-aminopyridin-2-yl)-1-(1H-tetrazol-5-yl)ethyl]pentanoic acid], in test [1], the “NDM1 EC30016 MITC95” value worked out at 1.6 µM. In addition, the “IMP1 SM5741 MITC95” value in test [2] was more than 200 µM. Also, the “VIM1 KP599644 MITC95” value in test [3] was found to be 18.8 µM. Also, the negative-log IC50 (pIC50) in test [4] is 5.89; in test [5], 6.43; in test [6], less than 4.70.
Consider `CCC[C@H](C(=O)O)[C@H](Cc1ccnc(N)c1)c1nnn[nH]1` [Example 118, (2S)-2-[(1S)-2-(2-aminopyridin-4-yl)-1-(1H-tetrazol-5-yl)ethyl]pentanoic acid], for which the “NDM1 EC30016 MITC95” value in test [1] was found to be 2.3 µM. Besides, in test [2], the “IMP1 SM5741 MITC95” value was determined as 200 µM. Besides, the “VIM1 KP599644 MITC95” value in test [3] amounted to 6.2 µM. The pIC50 is 5.96 in test [4], 8.00 in test [5] and less than 4.70 in test [6].
Consider `CC(C)C[C@H](C(=O)O)[C@H](Cc1ccc2ncc(N)cc2c1)c1nnn[nH]1` [Example 119, (S)-2-((S)-2-(3-aminoquinolin-6-yl)-1-(1H-tetrazol-5-yl)ethyl)-4-methylpentanoic acid], for which the “NDM1 EC30016 MITC95” value in test [1] came to 9.4 µM. Also, in test [2], the “IMP1 SM5741 MITC95” value amounted to 3.1 µM. Moreover, the “VIM1 KP599644 MITC95” value in test [3] was 25 µM. The pIC50 in test [4] is 7.92; in test [5], 9.00; in test [6], 7.28.
In the case of `CC(C)[C@H](C(=O)O)[C@H](Cc1ccc(N)nc1)c1nnn[nH]1` [Example 121, (2S,3S)-4-(6-aminopyridin-3-yl)-2-isopropyl-3-(1H-tetrazol-5-yl)butanoic acid], the “NDM1 EC30016 MITC95” value in test [1] turned out to be 0.21 µM. In addition, the “IMP1 SM5741 MITC95” value in test [2] was determined as 37 µM. Moreover, the “VIM1 KP599644 MITC95” value in test [3] was 5.5 µM. Also, the values for the negative logarithm of the IC50 (pIC50) in test [4], in test [5] and in test [6] were 6.92, 7.46 and 5.22, respectively.
Take `Nc1ccc(C[C@H](c2nnn[nH]2)[C@@H](C(=O)O)C2CCCC2)cn1` [Example 122, (2S,3S)-4-(6-aminopyridin-3-yl)-2-cyclopentyl-3-(1H-tetrazol-5-yl)butanoic acid]: the “NDM1 EC30016 MITC95” value in test [1] was found to be 0.39 µM. For the same compound, in test [2], the “IMP1 SM5741 MITC95” value was 12.5 µM. For the same compound, in test [3], the “VIM1 KP599644 MITC95” value was 6.2 µM. The figures for the pIC50 in test [4], in test [5] and in test [6] were 7.41, 8.85 and 6.21, respectively.
Regarding `CC(C)(C)[C@H](C(=O)O)[C@H](Cc1ccc(N)nc1)c1nnn[nH]1` [Example 123, (2R,3S)-4-(6-aminopyridin-3-yl)-2-(tert-butyl)-3-(1H-tetrazol-5-yl)butanoic acid], the “NDM1 EC30016 MITC95” value in test [1] was 3.1 µM. The “IMP1 SM5741 MITC95” value in test [2] is more than 200 µM. In addition, in test [3], the “VIM1 KP599644 MITC95” value was 50 µM. In addition, the results for the pIC50 in test [4], in test [5] and in test [6] were 5.96, 6.23 and less than 4.70, respectively.

(Values after patent US9839642B2, “Beta-tetrazolyl-propionic acids as metallo-beta-lactamase inhibitors” (priority 2014, dated 2017).)
